# Reference: ChEMBL document CHEMBL4840370, “Irilone, a Red Clover Isoflavone, Combined with Progesterone Enhances PR Signaling through the Estrogen and Glucocorticoid Receptors” (J Nat Prod, 2021)
# The source made the active and inactive calls. The rule behind the calls is not given here.
# Tests used:
# [1] = target: T1, Estrogen receptor (Homo sapiens) (UniProt P03372); assay: Induction of estrogen receptor in human T47D cells assessed as increase in PR-B protein expression at 10 uM incubated for 24 hrs in presence of SERM, 4-OH-TAM by western blot analysis; assay type: cell-based
# T1 sequence (whole entry): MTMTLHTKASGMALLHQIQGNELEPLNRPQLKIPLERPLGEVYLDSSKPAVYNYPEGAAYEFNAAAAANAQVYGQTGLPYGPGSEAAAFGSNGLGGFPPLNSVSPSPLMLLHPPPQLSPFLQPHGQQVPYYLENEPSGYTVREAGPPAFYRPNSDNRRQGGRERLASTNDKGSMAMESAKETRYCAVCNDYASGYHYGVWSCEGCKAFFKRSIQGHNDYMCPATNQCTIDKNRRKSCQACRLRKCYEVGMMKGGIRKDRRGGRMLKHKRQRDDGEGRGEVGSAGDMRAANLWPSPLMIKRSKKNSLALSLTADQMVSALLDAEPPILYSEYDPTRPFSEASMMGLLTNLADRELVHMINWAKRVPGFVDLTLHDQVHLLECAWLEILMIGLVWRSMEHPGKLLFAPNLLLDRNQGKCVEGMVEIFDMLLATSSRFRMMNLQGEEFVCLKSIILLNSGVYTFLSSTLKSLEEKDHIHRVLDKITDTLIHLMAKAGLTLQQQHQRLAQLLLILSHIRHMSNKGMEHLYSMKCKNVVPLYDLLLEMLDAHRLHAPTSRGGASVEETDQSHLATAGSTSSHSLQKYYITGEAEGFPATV
# [2] = test system: Ishikawa; assay: Decrease in PR-B protein expression in human Ishikawa PR-B cells at 10 uM incubated for 24 hrs in presence of 100 nM progesterone by western blot analysis; assay type: functional, cell-based
# [3] = test system: Ishikawa; assay: Effect on PR-B protein expression in human Ishikawa PR-B cells at 10 uM incubated for 24 hrs by western blot analysis; assay type: functional, cell-based
# [4] = test system: T47D; assay: Effect on R5020-induced PR-B phosphorylation at Ser294 residue in human T47D cells at 10 uM incubated for 60 mins by western blot analysis; assay type: functional, cell-based
# [5] = Induction of epithelial cells proliferation in uterus of ovariectomized CD-1 mouse at 4 mg/kg, ip administered once a day for 7 days and measured on day 7 at 6 hrs post-last dosage by PCNA staining based immunohistochemistry (reference value: 33.3%); assay type: organism-based; settings: in vivo, 168 h, time 7 day
# [6] = test system: Ishikawa; assay: Increase in PR-B protein expression in human Ishikawa PR-B cells at 10 uM incubated for 24 hrs in presence of 100 nM progesterone by western blot analysis; assay type: functional, cell-based
# [7] = test system: Ishikawa; assay: Potentiation of progesterone signalling in human Ishikawa null cells transfected with wild type PR assessed as induction of HRE/uc activity at 10 uM incubated for 24 hrs in presence of progesterone by luciferase reporter gene assay relative to control; assay type: functional
# [8] = test system: Ishikawa; assay: Decrease in PR-A protein expression in human Ishikawa PR-B cells at 10 uM incubated for 24 hrs in presence of 100 nM progesterone by western blot analysis; assay type: functional, cell-based
# [9] = target: T1, Estrogen receptor (Homo sapiens); assay: Induction of estrogen receptor in human T47D cells assessed as increase in PR-A protein expression at 10 uM incubated for 24 hrs in presence of SERM, 4-OH-TAM by western blot analysis; assay type: cell-based
# [10] = target: T2, Glucocorticoid receptor (Homo sapiens) (UniProt P04150); assay: Induction of glucocorticoid receptor in human Ishikawa PR-B cells assessed as potentiation of progesterone transcriptional activity by measuring increase in HRE-Luc activity at 10 uM measured after 24 hrs in presence of 5 to 100 nM progesterone by HRE-dependent dual luciferase reporter gene assay; assay type: cell-based; settings: filed as activator
# T2 sequence (whole entry): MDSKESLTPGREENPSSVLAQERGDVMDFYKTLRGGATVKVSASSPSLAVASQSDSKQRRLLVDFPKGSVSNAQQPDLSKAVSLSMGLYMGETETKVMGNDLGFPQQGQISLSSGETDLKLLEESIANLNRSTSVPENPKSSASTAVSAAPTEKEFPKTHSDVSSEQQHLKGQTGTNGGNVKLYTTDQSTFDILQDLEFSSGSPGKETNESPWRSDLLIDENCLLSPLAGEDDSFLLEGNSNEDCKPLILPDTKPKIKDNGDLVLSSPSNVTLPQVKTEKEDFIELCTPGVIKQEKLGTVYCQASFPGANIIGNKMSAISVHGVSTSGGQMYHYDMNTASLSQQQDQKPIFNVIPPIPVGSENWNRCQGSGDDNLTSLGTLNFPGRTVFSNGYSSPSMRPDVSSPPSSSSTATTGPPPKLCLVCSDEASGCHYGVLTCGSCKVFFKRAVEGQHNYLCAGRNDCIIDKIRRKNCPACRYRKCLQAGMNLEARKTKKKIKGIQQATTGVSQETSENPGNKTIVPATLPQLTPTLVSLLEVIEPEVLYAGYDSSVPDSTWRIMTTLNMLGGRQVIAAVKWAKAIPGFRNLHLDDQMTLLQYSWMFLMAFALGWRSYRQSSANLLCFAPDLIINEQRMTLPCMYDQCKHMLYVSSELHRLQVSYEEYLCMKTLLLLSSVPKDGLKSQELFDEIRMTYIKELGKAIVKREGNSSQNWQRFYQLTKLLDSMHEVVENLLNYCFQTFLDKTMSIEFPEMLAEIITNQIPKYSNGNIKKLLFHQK
# [11] = Induction of HRE/Luc activity in human Ishikawa PR-B cells transfected with GR siRNA at 10 uM incubated for 24 hrs in presence of progesterone by luciferase reporter gene assay relative to control; assay type: functional
# [12] = target: T1, Estrogen receptor (Homo sapiens); assay: Induction of estrogen receptor in human T47D cells assessed as increase in ERE/Luc activity at 10 uM measured after 24 hrs by luciferase reporter gene assay relative to control; assay type: cell-based; settings: filed as activator
# [13] = target: T1, Estrogen receptor (Homo sapiens); assay: Induction of estrogen receptor in human T47D cells assessed as increase in PR-B protein expression at 10 uM incubated for 24 hrs by western blot analysis; assay type: cell-based; settings: filed as activator
# [14] = test system: T47D; assay: Effect on PR-B phosphorylation at Ser294 residue in human T47D cells at 10 uM incubated for 60 mins by western blot analysis; assay type: functional, cell-based
# [15] = test system: Ishikawa; assay: Induction of HRE/Luc activity in human Ishikawa null cells at 10 uM incubated for 24 hrs by luciferase reporter gene assay; assay type: functional, cell-based
# [16] = test system: Ishikawa; assay: Increase in GR protein expression in human Ishikawa PR-B cells at 10 uM incubated for 24 hrs by western blot analysis; assay type: functional, cell-based
# [17] = test system: Ishikawa; assay: Induction of HRE/Luc activity in human Ishikawa null cells at 10 uM incubated for 24 hrs in presence of progesterone by luciferase reporter gene assay; assay type: functional, cell-based
# [18] = test system: T47D; assay: Effect on R5020-induced PR-A phosphorylation at Ser294 residue in human T47D cells at 10 uM incubated for 60 mins by western blot analysis; assay type: functional, cell-based
# [19] = test system: OVCAR-5; assay: Repression of dexamethasone-induced HRE/Luc activity in human OVCAR-5 cells at 10 uM incubated for 24 hrs by luciferase reporter gene assay; assay type: functional
# [20] = target: T1, Estrogen receptor (Homo sapiens); assay: Induction of estrogen receptor in human T47D cells assessed as potentiation of progesterone transcriptional activity by measuring increase in HRE-Luc activity at 10 uM measured after 24 hrs in presence of 5 nM progesterone by HRE-dependent dual luciferase reporter gene assay; assay type: cell-based; settings: filed as activator
# [21] = target: T1, Estrogen receptor (Homo sapiens); assay: Induction of estrogen receptor in human T47D cells assessed as increase in PR-A protein expression at 10 uM incubated for 24 hrs by western blot analysis; assay type: cell-based; settings: filed as activator
# [22] = test system: Ishikawa; assay: Potentiation of progesterone receptor signalling in human Ishikawa null cells transfected with wild type PR assessed as induction of HRE/uc activity at 10 uM incubated for 24 hrs by luciferase reporter gene assay relative to control; assay type: functional
# [23] = test system: Ishikawa; assay: Increase in PR-A protein expression in human Ishikawa PR-B cells at 10 uM incubated for 24 hrs in presence of 100 nM progesterone by western blot analysis; assay type: functional, cell-based
# [24] = target: T1, Estrogen receptor (Homo sapiens); assay: Induction of estrogen receptor in human T47D cells assessed as increase in PR-A protein expression at 10 uM incubated for 24 hrs in presence of SERM, 4-OH-TAM and progesterone by western blot analysis; assay type: cell-based
# [25] = test system: OVCAR-5; assay: Increase in GR protein expression in human OVCAR-5 cells at 10 uM incubated for 24 hrs by western blot analysis; assay type: functional, cell-based
# [26] = target: T1, Estrogen receptor (Homo sapiens); assay: Induction of estrogen receptor in human T47D cells assessed as increase in PR-B protein expression at 10 uM incubated for 24 hrs in presence of SERM, 4-OH-TAM and progesterone by western blot analysis; assay type: cell-based
# [27] = test system: Mus musculus; assay: In vivo potentiation of progesterone signalling in ovariectomized CD-1 mouse assessed as increase in FKBP5 expression in reproductive tract at 4 mg/kg, ip administered once a day for 7 days in presence of progesterone and measured on day 7 at 6 hrs post-last dosage by immunohistochemistry; assay type: functional, organism-based; settings: time 7.0 day
# [28] = test system: OVCAR-5; assay: Repression of dexamethasone-induced HRE/Luc activity in human OVCAR-5 cells at 1 to 5 uM incubated for 24 hrs by luciferase reporter gene assay; assay type: functional, cell-based; settings: dose 1-5 µM
# [29] = test system: Ishikawa; assay: Effect on PR-A protein expression in human Ishikawa PR-B cells at 10 uM incubated for 24 hrs by western blot analysis; assay type: functional, cell-based
# [30] = target: T1, Estrogen receptor (Homo sapiens); assay: Induction of estrogen receptor in human T47D cells assessed as increase in HRE-luc activity at 10 uM measured after 24 hrs by HRE-dependent dual luciferase reporter gene assay relative to control; assay type: cell-based; settings: filed as activator
# [31] = Induction of epithelial cells proliferation in uterus of ovariectomized CD-1 mouse at 4 mg/kg, ip administered once a day for 7 days in presence of progesterone and measured on day 7 at 6 hrs post-last dosage by PCNA staining based immunohistochemistry (reference value: 7%); assay type: organism-based; settings: in vivo, 168 h, time 7 day
# [32] = target: T2, Glucocorticoid receptor (Homo sapiens); assay: Induction of glucocorticoid receptor in human Ishikawa PR-B cells transfected with scrambled siRNA assessed as potentiation of progesterone signalling by measuring increase in HRE/Luc activity at 10 uM incubated for 24 hrs in presence of progesterone by luciferase reporter gene assay relative to control; assay type: cell-based; settings: filed as activator
# [33] = test system: T47D; assay: Effect on PR-A phosphorylation at Ser294 residue in human T47D cells at 10 uM incubated for 60 mins by western blot analysis; assay type: functional, cell-based
# [34] = target: T1, Estrogen receptor (Homo sapiens); assay: Induction of estrogen receptor in human T47D cells assessed as increase in PR-B protein expression at 10 uM incubated for 24 hrs in presence of progesterone by western blot analysis; assay type: cell-based
# [35] = target: T2, Glucocorticoid receptor (Homo sapiens); assay: Agonist activity at GR in human OVCAR-5 cells assessed as induction of HRE/Luc activity at 1 to 10 uM incubated for 24 hrs by luciferase reporter gene assay; assay type: cell-based; settings: dose 1-10 µM
# [36] = target: T1, Estrogen receptor (Homo sapiens); assay: Induction of estrogen receptor in human T47D cells assessed as increase in PR-A protein expression at 10 uM incubated for 24 hrs in presence of progesterone by western blot analysis; assay type: cell-based
# [37] = target: T2, Glucocorticoid receptor (Homo sapiens); assay: Induction of glucocorticoid receptor in human Ishikawa PR-B cells assessed as increase in HRE-luc activity at 10 uM measured after 24 hrs by HRE-dependent dual luciferase reporter gene assay relative to control; assay type: cell-based; settings: filed as activator
structure (smiles),measurement,setting,value
O=c1c(-c2ccc(O)cc2)coc2cc3c(c(O)c12)OCO3,Activity,[1],inactive
same,inhibition,[2],inactive
same,Activity,[3],inactive
same,Activity,[4],inactive
same,Activity,[5],18.4%
same,Activity,[6],inactive
same,fold change (FC),[7],38
same,inhibition,[8],inactive
same,Activity,[9],inactive
same,Activity,[10],Active
same,fold change (FC),[11],30
same,fold change (FC),[12],4
same,Activity,[13],Active
same,Activity,[14],inactive
same,Activity,[15],inactive
same,Activity,[16],Active
same,Activity,[17],inactive
same,Activity,[18],inactive
same,inhibition at 10 µM,[19],22%
same,Activity,[20],Active
same,Activity,[21],Active
same,fold change (FC),[22],5.8
same,Activity,[23],inactive
same,Activity,[24],inactive
same,Activity,[25],inactive
same,Activity,[26],inactive
same,Activity,[27],inactive
same,inhibition,[28],inactive
same,Activity,[29],inactive
same,fold change (FC),[30],1.07
same,Activity,[31],0.93%
same,fold change (FC),[32],44
same,Activity,[33],inactive
same,Activity,[34],inactive
same,Activity,[35],inactive
same,Activity,[36],inactive
same,fold change (FC),[37],1.2
